Results as given in patent US20120302609A1, “Pyrazolines for the Modulation of PKM2” (Dynamix Pharmaceuticals LTD., priority 2011, published 2012).

Columns and labels:
[1] = HT-29 xenograft mouse model, safety (body weight, observations); type: in vivo
Protocol: This example illustrates the efficacy and safety of a compound according to embodiments of the present invention, i.e., Compound 1A, using a HT-29 xenograft mouse model (a colorectal cancer model).
All the procedures related to animal handling, care, and the treatment in this study were performed according to approved guidelines a following the guidance of the Association for Assessment and Accreditation of Laboratory Animal Care (AAALAC). At the time of routine monitoring, the animals were checked for any effects of tumor growth and treatments on normal behavior such as mobility, food and water consumption (by looking only), body weight gain/loss (body weights were measured thrice weekly), eye/hair matting and any other abnormal effect. Death and observed clinical signs were recorded on the basis of the numbers of animals within each subset.
• a. Blood samples were collected after the 1st dose and the 23rd dose. Collected blood samples from 2 animals in each group at the designated timepoints post dose. The detailed timepoints are as below: • For the groups with QD dosing schedule: 1, 4, 8 and 24 hr post dose. • For the groups with Q2D dosing schedule: 1, 8, 24 and 48 hr post dose. • b. 20 μl blood was collected via tail vein in EDTA-2K tube (0.5 ml tube containing 0.4 μl 15% EDTA-2K. 60u1 double distilled water was added into the tube and mixed well.

[2] = test system: HT-29 (Colorectal cancer cell line); experiment: Cell proliferation, Assay Protocol I (CellTiter-Glo); type: cell-based; details: Homo sapiens
Protocol: (§1) Growth inhibitory activity against the human tumor cell lines was determined using Promega's CellTiter-Glo® assay. The cell lines of interest were placed in a 96-well microculture plate (Costar® white, flat bottom #3917) in a total volume of 90 μL/well. After 24 hours of incubation in a humidified incubator at 37° C. with 5% CO2 and 95% air, 10 μL of serially diluted test compounds in growth medium were added to each well. After 96 total hours of culture in a CO2 incubator, the plated cells and CellTiter-Glo® (Promega # G7571) reagents were brought to room temperature to equilibrate for 30 minutes. 100 μL of CellTiter-Glo® reagent was added to each well. The plate was shaken for 2 minutes and then left to equilibrate for 10 minutes before reading luminescence on the Tecan GENios microplate reader.
(§2) Percent inhibition of cell growth was calculated relative to untreated control wells. All tests were performed in duplicate for each concentration level. The IC50 value for the test compounds was estimated using Prism 3.03 by curve-fitting the data.

[3] = test system: SW480 (Colorectal cancer cell line); experiment: as above; type: cell-based; details: Homo sapiens
Protocol: as §1, §2

[4] = test system: A549 (Non-small cell lung carcinoma cell line); experiment: as above; type: cell-based; details: Homo sapiens
Protocol: as §1, §2

[5] = test system: HepG2 (Hepatocellular cancer cell line); experiment: as above; type: cell-based; details: Homo sapiens
Protocol: as §1, §2

[6] = test system: H1299 (Non-small cell lung carcinoma cell line); experiment: as above; type: cell-based; details: Homo sapiens, NCI-H1299, 96 total hours of culture
Protocol: as §1, §2

PKL = PKL (Homo sapiens, UniProt P30613); experiment: Isoform selectivity of pyruvate kinases; type: biochemical
HCT-116 (colon) = experiment: Cell proliferation assay (CellTiter-Glo Luminescent); type: cell-based; details: Homo sapiens, 1 mM glucose, 96 hr
HepG2 (liver) = experiment: Cell proliferation assay (XTT); type: cell-based; details: Homo sapiens, Complete media, Assay duration: 72 hours, Readout: XTT
Text: (§3) The assay is based on the ability of metabolic active cells to reduce the tetrazolium salt XTT to orange colored compounds of formazan. The dye formed is water soluble and the dye intensity can be read at a given wavelength with a spectrophotometer. The intensity of the dye is proportional to the number of metabolic active cells. The use of multiwell plates and an ELISA reader enables testing a large number of samples and obtaining easy and rapid results. The test procedure includes cultivation of cells in a 96-well plate, adding the XTT reagent and incubation for 2-24 hours. During incubation an orange color is formed, the intensity of which can be measured with a spectrophotometer, in this instance with an ELISA reader. The greater the number of active cells in the well, the greater the activity of mitochondria enzymes, and the higher the concentration of the dye formed, which can then be measured and quantitated.
• 1. […] The absorbance of the samples was measured against a background control as a blank (see 7) with a spectrophotometer (ELISA reader) at a wavelength of 450-500 nanometer. In order to measure reference absorbance (to measure non-specific readings), a wavelength of 630-690 nanometer was used and subtracted from the 450-500 nanometer measurement. • 7. […] This background absorbance depends on the culture medium, pH, incubation time and length of exposure to light. […]

H-460 (lung) = experiment: Cell proliferation assay (XTT); type: cell-based; details: Homo sapiens, NCI-H460, 72 h, Assay duration: 72 hours, Readout: XTT
Protocol: Day 0 Cells were seeded at 3000 cells/well in 100 μl full media in 96-well culture plates (60 wells/plate, external wells filled with 100 μl PBS) and incubated overnight. • Day 1 On the following day, full media was changed to the tested media and compounds were added in 0.5% DMSO final. • Day 2-5 Cells were incubated over 72 hr. • Day 5 Cell proliferation was assessed using XTT proliferation assay as follows:
as §3
• 1. […] The absorbance of the samples was measured against a background control as a blank (see 7) with a spectrophotometer (ELISA reader) at a wavelength of 450-500 nanometer. In order to measure reference absorbance (to measure non-specific readings), a wavelength of 630-690 nanometer was used and subtracted from the 450-500 nanometer measurement. • 7. Background control (blank): Slight spontaneous absorbance around 450-500 nanometer occurs in the culture medium incubated with the XTT reagent. This background absorbance depends on the culture medium, pH, incubation time and length of exposure to light. […] The average absorbance of the blank control wells was subtracted from that of the other wells. […]

PKR = PKR (Homo sapiens, UniProt P30613); experiment: Isoform selectivity of pyruvate kinases; type: biochemical
Sequence of PKR (P30613 whole entry, canonical isoform): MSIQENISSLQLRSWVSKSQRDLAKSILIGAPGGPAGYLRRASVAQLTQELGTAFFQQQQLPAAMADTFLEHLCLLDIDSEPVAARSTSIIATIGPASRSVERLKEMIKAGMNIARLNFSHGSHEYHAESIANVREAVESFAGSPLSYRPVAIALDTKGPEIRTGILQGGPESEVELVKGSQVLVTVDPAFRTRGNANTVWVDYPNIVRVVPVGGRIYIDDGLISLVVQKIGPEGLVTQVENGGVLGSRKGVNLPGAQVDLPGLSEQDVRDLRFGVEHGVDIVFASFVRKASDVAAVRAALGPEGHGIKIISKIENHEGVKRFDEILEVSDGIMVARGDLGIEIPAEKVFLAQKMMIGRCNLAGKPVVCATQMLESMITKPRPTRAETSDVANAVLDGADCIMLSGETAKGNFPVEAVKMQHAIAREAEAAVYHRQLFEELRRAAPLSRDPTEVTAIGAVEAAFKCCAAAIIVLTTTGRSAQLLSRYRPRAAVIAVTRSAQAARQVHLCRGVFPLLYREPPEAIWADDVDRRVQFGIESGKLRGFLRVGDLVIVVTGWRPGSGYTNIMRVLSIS

Sequence of PKL (P30613 1-543 isoform P30613-2): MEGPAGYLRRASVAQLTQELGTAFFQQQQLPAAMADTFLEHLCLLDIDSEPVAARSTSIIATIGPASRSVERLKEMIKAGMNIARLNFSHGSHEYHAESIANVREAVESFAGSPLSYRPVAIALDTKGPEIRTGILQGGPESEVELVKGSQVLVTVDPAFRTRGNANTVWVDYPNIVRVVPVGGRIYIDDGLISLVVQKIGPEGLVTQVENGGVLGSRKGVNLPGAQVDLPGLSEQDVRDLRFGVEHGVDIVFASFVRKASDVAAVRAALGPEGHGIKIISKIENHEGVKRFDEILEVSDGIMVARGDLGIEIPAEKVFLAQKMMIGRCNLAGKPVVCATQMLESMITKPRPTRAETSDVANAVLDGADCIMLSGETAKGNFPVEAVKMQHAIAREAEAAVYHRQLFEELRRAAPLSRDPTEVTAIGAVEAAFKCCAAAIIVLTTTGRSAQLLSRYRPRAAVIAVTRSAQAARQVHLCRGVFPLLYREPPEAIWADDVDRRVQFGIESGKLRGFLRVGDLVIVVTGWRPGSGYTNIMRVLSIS

SMILES	body weight loss ([1]; all the treatment groups (100-400 mg/kg i.p.))	in vivo safety profile ([1]; highest dosage level 400 mg/kg QD)	IC50 [2] [µM]	IC50 [3] [µM]	IC50 [4] [µM]	IC50 [5] [µM]	IC50 [6] [µM]	AC50 (PKL) [µM]	AC50 (HCT-116 (colon)) [µM]	AC50 (HepG2 (liver)) [µM]	AC50 (H-460 (lung); 1 mM glucose) [µM]	AC50 (H-460 (lung); Complete media) [µM]	AC50 (H-460 (lung); Lipoprotein-free media) [µM]	AC50 (PKR) [µM]
CCS(=O)(=O)Nc1ccc(C2=NN(C(C)=O)C(c3ccc(OC)cc3)C2)cc1 (racemic) [Compound 1A, N-(4-(1-acetyl-5-(4-methoxyphenyl)-4,5-dihydro-1H-pyrazol-3-yl)phenyl)ethanesulfonamide]	No significant body weight loss	good in vivo safety profile	> 100	40 to 100	< 40	40 to 100	40 to 100	–	–	–	–	–	–	–
COc1ccc([C@@H]2CC(c3ccc(NS(=O)(=O)c4ccc(F)cc4)cc3)=NN2C(C)=O)cc1 [Compound 13A, (S)—N-(4-(1-acetyl-5-(4-methoxyphenyl)-4,5-dihydro-1H-pyrazol-3-yl)phenyl)-4-fluorobenzenesulfonamide]	–	–	–	–	–	–	–	> 11	10 to 20	> 20	10 to 20	> 20	< 3	> 30
